The target in data set [1] is Cyclin-dependent kinase 5/CDK5 activator 1 (Homo sapiens, UniProt Q00535). Description: biochemical. In kind it is cell-based, Sf9.
For data set [2], the target named is Casein kinase I isoform epsilon (Homo sapiens, UniProt P49674). Description: biochemical. The format is cell-based, Sf9.
The target in data set [3] is T1, Dual specificity protein kinase CLK1 (Homo sapiens, UniProt P49759). The data set is described as follows: biochemical. In kind it is cell-based, Sf9.
T1 sequence (P49759 whole entry): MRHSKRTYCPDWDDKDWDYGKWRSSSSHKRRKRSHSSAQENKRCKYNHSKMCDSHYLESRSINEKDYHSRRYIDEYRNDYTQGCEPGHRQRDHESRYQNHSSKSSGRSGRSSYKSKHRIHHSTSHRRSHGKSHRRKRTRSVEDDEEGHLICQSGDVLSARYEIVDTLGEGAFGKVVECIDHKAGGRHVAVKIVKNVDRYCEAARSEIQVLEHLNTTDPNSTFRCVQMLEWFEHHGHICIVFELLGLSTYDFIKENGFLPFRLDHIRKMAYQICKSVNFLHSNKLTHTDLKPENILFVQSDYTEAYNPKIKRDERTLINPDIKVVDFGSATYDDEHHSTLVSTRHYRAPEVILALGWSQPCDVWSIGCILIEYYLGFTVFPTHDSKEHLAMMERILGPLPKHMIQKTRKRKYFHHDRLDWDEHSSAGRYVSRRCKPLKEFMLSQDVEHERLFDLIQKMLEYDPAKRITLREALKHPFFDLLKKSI
Data set [4] has as its target Dual specificity protein kinase CLK3 (Homo sapiens, UniProt P49761). Description: biochemical. The format is cell-based, Sf9.
For data set [5], the target named is T2, Dual specificity tyrosine-phosphorylation-regulated kinase 2 (Homo sapiens, UniProt Q92630).
T2 sequence (Q92630 whole entry): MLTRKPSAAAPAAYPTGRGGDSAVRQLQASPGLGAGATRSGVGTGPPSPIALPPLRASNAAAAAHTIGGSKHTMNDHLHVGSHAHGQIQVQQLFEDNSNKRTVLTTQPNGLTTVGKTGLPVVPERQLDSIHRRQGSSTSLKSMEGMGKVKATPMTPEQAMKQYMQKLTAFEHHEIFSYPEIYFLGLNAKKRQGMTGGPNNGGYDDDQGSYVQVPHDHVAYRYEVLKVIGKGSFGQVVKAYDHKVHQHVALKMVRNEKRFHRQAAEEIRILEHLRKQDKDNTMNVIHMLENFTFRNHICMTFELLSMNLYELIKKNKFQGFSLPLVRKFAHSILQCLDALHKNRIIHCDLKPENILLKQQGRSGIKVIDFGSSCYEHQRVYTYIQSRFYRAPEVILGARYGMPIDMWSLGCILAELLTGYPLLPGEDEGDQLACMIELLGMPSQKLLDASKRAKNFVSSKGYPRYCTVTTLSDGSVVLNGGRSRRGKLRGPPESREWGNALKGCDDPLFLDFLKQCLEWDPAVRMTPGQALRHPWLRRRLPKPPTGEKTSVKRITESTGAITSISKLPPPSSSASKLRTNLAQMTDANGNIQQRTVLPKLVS
The data set is described as follows: biochemical. The format is cell-based, Sf9.

In data set [6] the target is T3, Dual specificity tyrosine-phosphorylation-regulated kinase 3 (Homo sapiens, UniProt O43781).
T3 sequence (O43781 whole entry): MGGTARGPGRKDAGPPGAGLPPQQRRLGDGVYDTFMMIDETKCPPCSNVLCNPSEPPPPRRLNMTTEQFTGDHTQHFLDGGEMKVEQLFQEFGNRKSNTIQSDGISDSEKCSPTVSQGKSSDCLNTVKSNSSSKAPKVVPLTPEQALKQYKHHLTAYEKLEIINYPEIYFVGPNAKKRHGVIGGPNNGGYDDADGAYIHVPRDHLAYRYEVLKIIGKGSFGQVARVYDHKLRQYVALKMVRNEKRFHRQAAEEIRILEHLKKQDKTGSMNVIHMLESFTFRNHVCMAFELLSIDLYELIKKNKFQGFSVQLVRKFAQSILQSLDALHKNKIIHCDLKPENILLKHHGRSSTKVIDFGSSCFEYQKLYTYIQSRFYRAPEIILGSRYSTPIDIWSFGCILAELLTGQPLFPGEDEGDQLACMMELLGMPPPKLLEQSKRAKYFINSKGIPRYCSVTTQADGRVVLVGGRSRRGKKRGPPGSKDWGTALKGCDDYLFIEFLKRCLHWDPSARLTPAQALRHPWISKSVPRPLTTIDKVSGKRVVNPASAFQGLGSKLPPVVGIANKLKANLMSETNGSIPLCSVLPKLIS
Description: biochemical. The format is cell-based, Sf9.

Data set [7] has as its target T4, Dual specificity tyrosine-phosphorylation-regulated kinase 4 (Homo sapiens, UniProt Q9NR20).
T4 sequence (Q9NR20 whole entry): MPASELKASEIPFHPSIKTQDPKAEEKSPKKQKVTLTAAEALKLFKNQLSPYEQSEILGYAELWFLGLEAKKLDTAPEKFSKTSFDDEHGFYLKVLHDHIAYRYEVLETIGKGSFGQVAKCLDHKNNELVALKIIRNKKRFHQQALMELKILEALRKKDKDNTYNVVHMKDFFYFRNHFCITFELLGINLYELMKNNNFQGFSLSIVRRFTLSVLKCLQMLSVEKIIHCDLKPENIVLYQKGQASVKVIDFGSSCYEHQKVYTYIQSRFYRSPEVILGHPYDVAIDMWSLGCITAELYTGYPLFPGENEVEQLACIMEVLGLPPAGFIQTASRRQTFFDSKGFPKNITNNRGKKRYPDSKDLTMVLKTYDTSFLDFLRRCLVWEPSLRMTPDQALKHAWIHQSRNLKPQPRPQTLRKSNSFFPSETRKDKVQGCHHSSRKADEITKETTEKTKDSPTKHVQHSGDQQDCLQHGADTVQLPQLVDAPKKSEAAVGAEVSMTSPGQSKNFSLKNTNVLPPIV
Description: biochemical. In kind it is cell-based, Sf9.

Data set [8] concerns the target T5, Glycogen synthase kinase-3 beta (Homo sapiens, UniProt P49841). Description: biochemical. In kind it is cell-based, Sf9.
The nature of a further data set: in vitro. To be noted: mouse, ht-22.
The target in data set [9] is Dual specificity protein kinase CLK2 (Homo sapiens, UniProt P49760). The data set is described as follows: biochemical.
Sequence of Dual specificity protein kinase CLK2 (P49760 whole entry): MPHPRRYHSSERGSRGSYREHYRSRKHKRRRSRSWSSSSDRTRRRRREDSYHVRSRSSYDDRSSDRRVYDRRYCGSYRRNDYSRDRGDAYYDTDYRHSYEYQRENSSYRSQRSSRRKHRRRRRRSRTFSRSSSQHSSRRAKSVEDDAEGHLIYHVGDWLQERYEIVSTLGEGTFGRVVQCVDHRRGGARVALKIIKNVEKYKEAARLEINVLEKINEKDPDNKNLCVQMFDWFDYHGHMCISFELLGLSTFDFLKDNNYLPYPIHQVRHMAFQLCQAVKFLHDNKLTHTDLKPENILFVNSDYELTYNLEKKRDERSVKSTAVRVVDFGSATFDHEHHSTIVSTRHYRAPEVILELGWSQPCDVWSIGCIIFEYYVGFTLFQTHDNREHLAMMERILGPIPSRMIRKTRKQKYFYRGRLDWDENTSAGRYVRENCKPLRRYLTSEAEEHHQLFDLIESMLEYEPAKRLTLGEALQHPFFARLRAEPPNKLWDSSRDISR
The target of data set [10] is Dual specificity protein kinase CLK4 (Homo sapiens, UniProt Q9HAZ1). The data set is described as follows: biochemical.
Sequence of Dual specificity protein kinase CLK4 (Q9HAZ1 whole entry): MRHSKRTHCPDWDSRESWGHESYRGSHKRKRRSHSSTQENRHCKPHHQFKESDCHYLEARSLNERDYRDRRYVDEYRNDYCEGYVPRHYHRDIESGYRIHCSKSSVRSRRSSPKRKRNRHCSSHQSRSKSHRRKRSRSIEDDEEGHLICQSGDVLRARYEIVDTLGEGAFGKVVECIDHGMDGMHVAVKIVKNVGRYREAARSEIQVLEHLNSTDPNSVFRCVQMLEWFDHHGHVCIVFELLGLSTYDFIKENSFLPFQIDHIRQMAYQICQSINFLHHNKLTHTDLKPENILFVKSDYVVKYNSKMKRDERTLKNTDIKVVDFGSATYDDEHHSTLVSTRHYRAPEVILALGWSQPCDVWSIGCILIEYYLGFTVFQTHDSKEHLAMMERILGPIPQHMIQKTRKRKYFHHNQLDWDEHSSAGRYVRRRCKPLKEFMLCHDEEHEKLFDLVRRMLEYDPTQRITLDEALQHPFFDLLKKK
Data set [11] concerns the target T6, Dual specificity tyrosine-phosphorylation-regulated kinase 1A (Homo sapiens, UniProt Q13627). The data set is described as follows: biochemical.
For data set [12], the target named is T1, Dual specificity protein kinase CLK1. The data set is described as follows: biochemical. The format is cell-based, Sf9. As to conditions: read-out: IC50.
Data set [13] addresses T6, Dual specificity tyrosine-phosphorylation-regulated kinase 1A.
Data set [14] concerns the target T1, Dual specificity protein kinase CLK1.
Data set [15] has as its target T5, Glycogen synthase kinase-3 beta.

The results in this text go back to ChEMBL document CHEMBL5247649, “Comparative Efficacy and Selectivity of Pharmacological Inhibitors of DYRK and CLK Protein Kinases” (J Med Chem, 2023).

The IC50 is the concentration that gives 50% inhibition. What is called Kd is the equilibrium constant for the complex coming apart. A high value points to lower affinity.

T5 sequence (P49841 whole entry): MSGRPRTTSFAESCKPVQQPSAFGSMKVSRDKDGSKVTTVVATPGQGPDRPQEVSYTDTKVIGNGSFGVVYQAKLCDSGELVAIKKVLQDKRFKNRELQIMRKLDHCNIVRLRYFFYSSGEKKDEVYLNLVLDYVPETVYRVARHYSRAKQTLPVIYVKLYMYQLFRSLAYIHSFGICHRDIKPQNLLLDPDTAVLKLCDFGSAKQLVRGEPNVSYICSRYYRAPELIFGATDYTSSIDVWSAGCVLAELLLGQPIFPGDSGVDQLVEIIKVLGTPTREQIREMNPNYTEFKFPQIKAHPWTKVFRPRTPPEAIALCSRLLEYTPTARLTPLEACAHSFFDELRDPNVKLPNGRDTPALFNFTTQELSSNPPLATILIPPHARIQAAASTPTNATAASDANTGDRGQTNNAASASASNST
Sequence of Cyclin-dependent kinase 5/CDK5 activator 1 (Q00535 whole entry, canonical isoform): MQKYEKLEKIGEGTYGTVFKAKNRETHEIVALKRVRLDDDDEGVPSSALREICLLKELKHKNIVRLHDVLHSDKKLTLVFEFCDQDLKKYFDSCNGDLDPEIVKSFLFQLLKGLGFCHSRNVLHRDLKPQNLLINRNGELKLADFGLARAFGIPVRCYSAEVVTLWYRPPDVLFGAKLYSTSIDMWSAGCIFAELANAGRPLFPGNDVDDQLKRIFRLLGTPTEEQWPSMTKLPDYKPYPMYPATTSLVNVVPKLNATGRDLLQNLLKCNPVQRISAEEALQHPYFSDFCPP
Sequence of Cyclin-dependent kinase 5/CDK5 activator 1 (Q15078 whole entry, further chain, canonical isoform): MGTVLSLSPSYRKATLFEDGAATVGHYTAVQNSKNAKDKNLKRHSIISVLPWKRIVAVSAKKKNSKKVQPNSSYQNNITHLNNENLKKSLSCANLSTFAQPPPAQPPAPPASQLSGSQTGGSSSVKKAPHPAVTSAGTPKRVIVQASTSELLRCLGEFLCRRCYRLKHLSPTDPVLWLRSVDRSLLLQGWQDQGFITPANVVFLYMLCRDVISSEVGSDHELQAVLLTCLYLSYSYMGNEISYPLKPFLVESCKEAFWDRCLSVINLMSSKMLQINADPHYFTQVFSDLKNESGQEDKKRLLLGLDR
Sequence of Dual specificity protein kinase CLK3 (P49761 whole entry): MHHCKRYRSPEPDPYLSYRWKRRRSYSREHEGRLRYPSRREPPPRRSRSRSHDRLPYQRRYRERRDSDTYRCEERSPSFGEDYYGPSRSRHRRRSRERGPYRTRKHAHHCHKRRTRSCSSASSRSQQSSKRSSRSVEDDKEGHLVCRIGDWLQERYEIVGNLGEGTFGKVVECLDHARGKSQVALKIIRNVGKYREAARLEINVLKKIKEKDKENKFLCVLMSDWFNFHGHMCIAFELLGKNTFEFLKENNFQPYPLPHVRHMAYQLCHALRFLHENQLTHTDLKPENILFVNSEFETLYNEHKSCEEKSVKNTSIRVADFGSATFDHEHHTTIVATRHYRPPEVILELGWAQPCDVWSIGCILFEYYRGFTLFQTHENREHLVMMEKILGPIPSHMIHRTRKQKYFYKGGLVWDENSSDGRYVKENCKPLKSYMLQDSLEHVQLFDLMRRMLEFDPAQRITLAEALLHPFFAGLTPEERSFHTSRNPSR
Sequence of Casein kinase I isoform epsilon (P49674 whole entry, canonical isoform): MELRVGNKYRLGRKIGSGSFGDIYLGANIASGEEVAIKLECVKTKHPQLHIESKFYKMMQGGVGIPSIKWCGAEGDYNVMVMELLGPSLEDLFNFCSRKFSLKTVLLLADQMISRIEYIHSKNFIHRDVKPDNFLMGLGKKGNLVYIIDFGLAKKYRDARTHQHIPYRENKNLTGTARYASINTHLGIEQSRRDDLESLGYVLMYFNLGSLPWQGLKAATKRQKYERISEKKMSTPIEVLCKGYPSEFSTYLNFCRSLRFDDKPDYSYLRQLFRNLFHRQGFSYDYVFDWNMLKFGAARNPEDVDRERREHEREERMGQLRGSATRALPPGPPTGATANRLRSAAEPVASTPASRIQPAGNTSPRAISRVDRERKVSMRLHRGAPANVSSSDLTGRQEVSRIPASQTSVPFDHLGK

With `O=C1Nc2cc(S(=O)(=O)Cc3c(Cl)cccc3Cl)ccc2S/C1=C\c1ccc(O)c([N+](=O)[O-])c1`, the IC50 is over 10 µM in [1]; 4.38 µM in data set [2]; 6.07 µM in data set [3]; over 10 µM in data set [4]; 1.75 µM in data set [5]; over 10 µM in data set [6]. Moreover, the IC50 was over 10 µM in [7]; over 10 µM in data set [8]; over 10 µM in data set [9]; over 10 µM in data set [10]; 3.09 µM in data set [11]. In the data set “in vitro”, this molecule displayed an IC50 at 48 h of 1 µM.

In the case of `COc1cc(CCc2c(O)ccc(O[C@@H]3O[C@H](CO)[C@@H](O)[C@H](O)[C@H]3O)c2C(C)=O)ccc1O` [SCORZODIHYDROSTILBENE A], the IC50 in data set [1], in [2], in [3], in data set [4], in data set [5] and in [6] was over 10 µM throughout. Also, the IC50 in data set [7] was over 10 µM; in [8], over 10 µM; in data set [9] it was over 10 µM; in data set [10] it was over 10 µM; in [11] it was 2.3 µM. Further, the IC50 at 48 h in the data set “in vitro” was over 100 µM.

As to `CC(=O)c1nccc2c1[nH]c1ccccc12`, the IC50 in data set [1], in [2], in data set [3], in data set [4], in data set [5] and in data set [6] was over 10 µM each time. Also, the IC50 in data set [7], in data set [8], in [9], in data set [10] and in data set [11] was over 10 µM throughout. The same molecule displayed an IC50 at 48 h in “in vitro” of over 100 µM.

`Cn1cc(-c2ccc3occ(-c4cccc(-c5ccncc5)c4)c3n2)cn1`: the IC50 in data set [1] was over 10 µM; in [2] it was over 10 µM; in [5], 3.04 µM; in [6] it was over 10 µM; in data set [7], over 10 µM; in data set [8], 2.86 µM. Further, the IC50 in [10] stood at 0.0839 µM; in data set [11], 1.14 µM. The same molecule returned an IC50 at 48 h in the data set “in vitro” of 2.6 µM.

In the case of `Cc1cccc(N(C)c2nccc(-c3cnn4ncccc34)n2)c1`, the IC50 in [1] was over 10 µM; in [2] it was over 10 µM; in data set [3] it was 0.125 µM; in [4] it was over 10 µM; in data set [5], over 10 µM; in data set [6], over 10 µM. Further, the IC50 is over 10 µM in [7]; over 10 µM in data set [8]; 0.269 µM in data set [9]; 0.0909 µM in [10]; 0.435 µM in data set [11]. In “in vitro”, this molecule had an IC50 at 48 h of 30.1 µM.

With `CN1CCN(C(=O)C(C)(C)c2ccc(C(=O)Cc3cn4cc(-c5ccncc5)ccc4n3)cc2)CC1`, the IC50 in data set [1] was over 10 µM; in [2], over 10 µM; in [3] it was 0.107 µM; in data set [4], 0.74 µM; in data set [5], over 10 µM; in data set [6], over 10 µM. The IC50 is over 10 µM in data set [7]; over 10 µM in data set [8]; 0.121 µM in data set [12]; 0.0728 µM in data set [13]; 0.147 µM in data set [9]; 0.0491 µM in [10]. The same molecule displayed an IC50 in data set [11] of 0.253 µM. In addition, in “in vitro”, it took 7.9 µM to reach half-maximal inhibition (IC50 at 48 h).

For the molecule `Cc1cc(C(=O)NC2Nc3cccc(C)c3N2[C@H]2CCCCN(C(=O)/C=C/CN(C)C)C2)ccn1` (stereo partly drawn), the IC50 in [1], in [2], in [3], in [4], in data set [5] and in data set [6] was over 10 µM in each case. Moreover, the IC50 in [7] is over 10 µM; in data set [8], 5.26 µM; in data set [9], 5.96 µM; in data set [10], over 10 µM; in data set [11], over 10 µM. Inhibition in the data set “in vitro” was half-maximal at 60 µM (IC50 at 48 h).

Regarding `CCN(CC)Cc1ccc(OC)c(-c2cc3c(-c4ccc(C(=O)O)c(C(C)C)c4)ccnc3[nH]2)c1`, the IC50 in [1] is over 10 µM; in data set [2] it was over 10 µM; in data set [3] it was 0.607 µM; in data set [4], 2.41 µM; in data set [5] it was over 10 µM; in data set [6], over 10 µM. The IC50 in data set [7] was over 10 µM; in [8] it was 1.33 µM; in data set [9], 0.772 µM; in [10], 0.672 µM; in [11] it was 8.26 µM. Besides, in the data set “in vitro”, the IC50 at 48 h amounted to 8.1 µM.

With `CC(C)(c1ccc(O)cc1)c1ccc(O)cc1` [BISPHENOL A], the IC50 in [1], in data set [2], in data set [3], in data set [4], in data set [5] and in data set [6] was over 10 µM throughout. For the same molecule, the IC50 in data set [7], in data set [8], in data set [9], in [10] and in data set [11] was over 10 µM each time. The IC50 at 48 h in the data set “in vitro” is 97 µM.

For the molecule `CCOc1ccc2nc(N3CCCN(C(=S)Nc4ccccc4F)CC3)c(C#N)cc2c1`, the IC50 in data set [1], in data set [2], in data set [3], in [4], in data set [5] and in data set [6] was over 10 µM in each case. The IC50 in data set [7], in [8], in data set [9], in data set [10] and in data set [11] was over 10 µM throughout. For the same molecule, in “in vitro”, the IC50 at 48 h was over 100 µM.

Consider `COc1cc(N2CCN(C)CC2)ccc1Nc1nccc(-c2cn(C)c3cnccc23)n1`, for which the IC50 is 1.06 µM in data set [1]; over 10 µM in data set [2]; 0.568 µM in data set [3]; over 10 µM in [4]; 0.764 µM in data set [5]; 1.22 µM in data set [6]. Also, the IC50 in [7] is 6.25 µM; in [8], over 10 µM; in data set [12] it was 0.175 µM; in data set [9], 3.5 µM; in data set [10], 0.403 µM. Further, the dissociation constant Kd in [14] is 0.00735 µM; in data set [15], over 10 µM. Besides, the IC50 at 48 h in “in vitro” was determined as 27.8 µM.
